The nature of the assay: Contact Assay (percentage inhibition from fluorescence intensity). It is filed as biochemical. As for the experimental part: The percentage inhibition was calculated using the following equation:
[formula] where, Mean(BG) is the average value of the fluorescence intensity of the background wells and Mean(PC) is the average value of the fluorescence intensity of the positive control wells.
Table 4 provides the EC50 values of various compounds disclosed herein.
A word on the EC50: it is the concentration giving half of the maximal effect. With `Cc1cc(N)nc(C)c1CNC(=O)c1ccnc(Cc2cc(C(=O)O)c3ncc(Cl)cc3c2)c1` [Example 93, 6-((4-(((6-amino-2,4-dimethylpyridin-3-yl)methyl)carbamoyl)pyridin-2-yl)methyl)-3-chloroquinoline-8-carboxylic acid], the EC50 is no more than 100 nM.

On to `Cc1nc(N)ccc1CNC(=O)c1ccnc(Cc2cc(CO)c3ncc(Cl)cc3c2)c1` [Example 97, N-((6-amino-2-methylpyridin-3-yl)methyl)-2-((3-chloro-8-(hydroxymethyl)quinolin-6-yl)methyl)isonicotinamide], for which the EC50 is no more than 100 nM.

The compound `Cc1cc(N)nc(C)c1CNC(=O)c1ccnc(Cc2ccc3c(cc(Cl)c[n+]3[O-])c2)c1` [Example 99, 6-((4-(((6-amino-2,4-dimethylpyridin-3-yl)methyl)carbamoyl)pyridin-2-yl)methyl)-3-chloroquinoline 1-oxide] came in with a concentration for a half-maximal effect (EC50) of no more than 100 nM.

As to `Cc1cc(N)nc(C)c1CNC(=O)c1ccnc(Cc2cc(Cl)c3ncc(Cl)cc3c2)c1` [Example 100, N-((6-amino-2,4-dimethylpyridin-3-yl)methyl)-2-((3,8-dichloroquinolin-6-yl)methyl)isonicotinamide], the EC50 is no more than 100 nM.

With `Cc1nc(N)ccc1CNC(=O)c1ccnc(Cc2cc(Cl)c3ncc(Cl)cc3c2)c1` [Example 101, N-((6-amino-2-methylpyridin-3-yl)methyl)-2-((3,8-dichloroquinolin-6-yl)methyl)isonicotinamide], the 50% effective concentration (EC50) is no more than 100 nM.

In turn, `Cc1cc(N)nc(C)c1CNC(=O)c1ccnc(Cc2ccc3ncc(Cl)cc3c2F)c1` [Example 102, N-((6-amino-2,4-dimethylpyridin-3-yl)methyl)-2-((3-chloro-5-fluoroquinolin-6-yl)methyl)isonicotinamide] yielded an EC50 of 100 to 1000 nM.

`Cc1cc(C(=O)NCc2c(C)cc(N)nc2C)cc(Cc2ccc3ncc(Cl)cc3c2)n1` [Example 104, N-((6-amino-2,4-dimethylpyridin-3-yl)methyl)-2-((3-chloroquinolin-6-yl)methyl)-6-methylisonicotinamide] had an EC50 of no more than 100 nM.

With `Cc1ccc2cc(Cc3cc(C(=O)NCc4c(C)cc(N)nc4C)ccn3)ccc2n1` [Example 113, N-((6-amino-2,4-dimethylpyridin-3-yl)methyl)-2-((2-methylquinolin-6-yl)methyl)isonicotinamide], the EC50 was no more than 100 nM.

`Cc1ccc2ncc(Cc3cc(C(=O)NCc4c(C)cc(N)nc4C)ccn3)cc2c1` [Example 114, N-((6-amino-2,4-dimethylpyridin-3-yl)methyl)-2-((6-methylquinolin-3-yl)methyl)isonicotinamide] displayed an EC50 of no more than 100 nM.

`Cc1ccc2ncc(Cc3cc(C(=O)NCc4ccc5c(N)nccc5c4)ccn3)cc2c1` [Example 115, N-((1-aminoisoquinolin-6-yl)methyl)-2-((6-methylquinolin-3-yl)methyl)isonicotinamide] showed an EC50 of no more than 100 nM.

On to `Nc1nccc2cc(CNC(=O)c3ccnc(Cc4cnc5ccc(F)cc5c4)c3)ccc12` [Example 118, N-((1-aminoisoquinolin-6-yl)methyl)-2-((6-fluoroquinolin-3-yl)methyl)isonicotinamide], for which the EC50 was no more than 100 nM.

`Cc1cnc2ccc(Cc3cc(C(=O)NCc4ccc5c(N)nccc5c4)ccn3)cc2c1` [Example 142, N-((1-aminoisoquinolin-6-yl)methyl)-2-((3-methylquinolin-6-yl)methyl)isonicotinamide] yielded an EC50 of no more than 100 nM.

As for `Cc1cnc2ccc(Cc3cc(C(=O)NCc4c(C)cc(N)nc4C)ccn3)cc2c1` [Example 144, N-((6-amino-2,4-dimethylpyridin-3-yl)methyl)-2-((3-methylquinolin-6-yl)methyl)isonicotinamide], the EC50 is no more than 100 nM.

Regarding `Cc1cc2cc(Cc3cc(C(=O)NCc4c(C)cc(N)nc4C)ccn3)ccc2cn1` [Example 145, N-((6-amino-2,4-dimethylpyridin-3-yl)methyl)-2-((3-methylisoquinolin-6-yl)methyl)isonicotinamide], the concentration giving a half-maximal response (EC50) was no more than 100 nM.

In the case of `Cc1cc(N)nc(C)c1CNC(=O)c1ccnc(Cc2cc3cc(Cl)cnc3cn2)c1` [Example 148, N-((6-amino-2,4-dimethylpyridin-3-yl)methyl)-2-((3-chloro-1,7-naphthyridin-6-yl)methyl)isonicotinamide], the EC50 was no more than 100 nM.

`Cc1nc(N)ccc1CNC(=O)c1ccnc(Cc2cc3cc(Cl)cnc3cn2)c1` [Example 149, N-((6-amino-2-methylpyridin-3-yl)methyl)-2-((3-chloro-1,7-naphthyridin-6-yl)methyl)isonicotinamide] yielded an EC50 of no more than 100 nM.

With `Cc1cc(N)nc(C)c1CNC(=O)c1ccnc(Cc2cnc3[nH]c(C(F)(F)F)cc3c2)c1` [Example 152, N-((6-amino-2,4-dimethylpyridin-3-yl)methyl)-2-((2-(trifluoromethyl)-1H-pyrrolo[2,3-b]pyridin-5-yl)methyl)isonicotinamide], the concentration for a half-maximal effect (EC50) fell in the range of 100 to 1000 nM.

Consider `Cc1cc(N)nc(C)c1CNC(=O)c1ccnc(Cc2cc3cc(Cl)cn3cn2)c1` [Example 153, N-((6-amino-2,4-dimethylpyridin-3-yl)methyl)-2-((6-chloropyrrolo[1,2-c]pyrimidin-3-yl)methyl)isonicotinamide], for which the EC50 was no more than 100 nM.

The compound `Cc1ccn2cnc(CNC(=O)c3ccnc(Cc4ccc5ncc(Cl)cc5c4)c3)c2c1` [Example 156, 2-((3-chloroquinolin-6-yl)methyl)-N-((7-methylimidazo [1,5-a]pyridin-1-yl)methyl)isonicotinamide] yielded an EC50 of 100 to 1000 nM.

Compound `Cc1cc(CN)nc(C)c1CNC(=O)c1ccnc(Cc2ccc3ncc(Cl)cc3c2)c1` [Example 171, N-((6-(aminomethyl)-2,4-dimethylpyridin-3-yl)methyl)-2-((3-chloroquinolin-6-yl)methyl)isonicotinamide] displayed an EC50 of 100 to 1000 nM.

The compound `Cc1cc(CN)nc(C)c1CNC(=O)c1ccnc(Cc2ccc3ncc(C(F)(F)F)cc3c2)c1` [Example 172, N-((6-(aminomethyl)-2,4-dimethylpyridin-3-yl)methyl)-2-((3-(trifluoromethyl)quinolin-6-yl)methyl)isonicotinamide] gave an EC50 of no more than 100 nM.

The compound `Cc1nc2c(c(C)c1CNC(=O)c1ccnc(Cc3ccc4ncc(C(F)(F)F)cc4c3)c1)CCN2` [Example 176, N-((4,6-dimethyl-2,3-dihydro-1H-pyrrolo[2,3-b]pyridin-5-yl)methyl)-2-((3-(trifluoromethyl)quinolin-6-yl)methyl)isonicotinamide] came in with an EC50 of 100 to 1000 nM.

The compound `Cc1c(CNC(=O)c2ccnc(Cc3ccc4ncc(Cl)cc4c3)c2)ccc2c(N)nccc12` [Example 177, N-((1-amino-5-methylisoquinolin-6-yl)methyl)-2-((3-chloroquinolin-6-yl)methyl)isonicotinamide] showed an EC50 of no more than 100 nM.

`Nc1nccc2c(F)c(CNC(=O)c3ccnc(Cc4ccc5ncc(Cl)cc5c4)c3)ccc12` [Example 178, N-((1-amino-5-fluoroisoquinolin-6-yl)methyl)-2-((3-chloroquinolin-6-yl)methyl)isonicotinamide] returned an EC50 of no more than 100 nM.

`Nc1nccc2cc(CNC(=O)c3ccnc(Cc4ccc5ncc(Cl)cc5c4)c3)ccc12` [Example 179, N-((1-aminoisoquinolin-6-yl)methyl)-2-((3-chloroquinolin-6-yl)methyl)isonicotinamide] had a concentration giving a half-maximal response (EC50) of no more than 100 nM.

As for `Nc1nccc2cc(CNC(=O)c3ccnc(Cc4ccc5ncc(Cl)cc5c4)c3)c(F)cc12` [Example 180, N-((1-amino-7-fluoroisoquinolin-6-yl)methyl)-2-((3-chloroquinolin-6-yl)methyl)isonicotinamide], the EC50 fell in the range of 100 to 1000 nM.

With `Cc1cc2c(N)nccc2cc1CNC(=O)c1ccnc(Cc2ccc3ncc(Cl)cc3c2)c1` [Example 181, N-((1-amino-7-methylisoquinolin-6-yl)methyl)-2-((3-chloroquinolin-6-yl)methyl)isonicotinamide], the EC50 is no more than 100 nM.

In turn, `Nc1nccc2cc(CNC(=O)c3ccnc(Cc4ccc5ncc(C(F)(F)F)cc5c4)c3)c(F)cc12` [Example 182, N-((1-amino-7-fluoroisoquinolin-6-yl)methyl)-2-((3-(trifluoromethyl)quinolin-6-yl)methyl)isonicotinamide] yielded an EC50 of 100 to 1000 nM.

The compound `Cc1cc2c(N)nccc2cc1CNC(=O)c1ccnc(Cc2ccc3ncc(C(F)(F)F)cc3c2)c1` [Example 183, N-((1-amino-7-methylisoquinolin-6-yl)methyl)-2-((3-(trifluoromethyl)quinolin-6-yl)methyl)isonicotinamide] showed an EC50 of no more than 100 nM.

`Cc1c(CNC(=O)c2ccnc(Cc3ccc4ncc(C(F)(F)F)cc4c3)c2)ccc2c(N)nccc12` [Example 184, N-((1-amino-5-methylisoquinolin-6-yl)methyl)-2-((3-(trifluoromethyl)quinolin-6-yl)methyl)isonicotinamide] came in with an EC50 of no more than 100 nM.

In turn, `Nc1nc(C(F)(F)F)n2cc(CNC(=O)c3ccnc(Cc4ccc5ncc(Cl)cc5c4)c3)ccc12` [Example 186, N-((1-amino-3-(trifluoromethyl)imidazo[1,5-a]pyridin-6-yl)methyl)-2-((3-chloroquinolin-6-yl)methyl)isonicotinamide] gave an EC50 of no more than 100 nM.

With `Cc1cc(N)nc(C)c1CNC(=O)c1ccnc(Cc2cnc3ncc(Cl)cc3c2)c1` [Example 204, N-((6-amino-2,4-dimethylpyridin-3-yl)methyl)-2-((6-chloro-1,8-naphthyridin-3-yl)methyl)isonicotinamide], the 50% effective concentration (EC50) is no more than 100 nM.

Consider `Cc1cc(N)nc(C)c1CNC(=O)c1cc(Cc2ccc3ncc(Cl)cc3c2)nc(C(N)=O)c1` [Example 208, N^4-((6-amino-2,4-dimethylpyridin-3-yl)methyl)-6-((3-chloroquinolin-6-yl)methyl)pyridine-2,4-dicarboxamide], for which the concentration giving a half-maximal response (EC50) is no more than 100 nM.

On to `Cc1cc(N)nc(C)c1CNC(=O)c1cc(Cc2ccc3ncc(Cl)cc3c2)nc(C(C)(C)O)c1` [Example 210, N-((6-amino-2,4-dimethylpyridin-3-yl)methyl)-2-((3-chloroquinolin-6-yl)methyl)-6-(2-hydroxypropan-2-yl)isonicotinamide], for which the EC50 was no more than 100 nM.
